Measured values: patent publication US20240218022A1, “ANTI-VISTA MACROCYCLIC PEPTIDES AND COMPOSITIONS” (BRISTOL-MYERS SQUIBB COMPANY, priority 2022, published 2024)
Like-named read-outs stand apart in the source and are kept apart here. Starred links: 1 amine or outer side, 2 acyl side, 3 side chain; linkers in the order of their positions; H or OH if unused. Positions of bridges follow the written chain, without caps; N, C: chain ends. Non-standard residues stand in square brackets, D forms with d. Residues, ends and D or L forms follow the SMILES beside them. ξ: configuration not given here. Phe(3,4,5-F3) = N[C@@H](Cc1cc(F)c(F)c(F)c1)C(=O)O; Phe(4-CF3) = N[C@@H](Cc1ccc(C(F)(F)F)cc1)C(=O)O; Phe(2,4-F2) = N[C@@H](Cc1ccc(F)cc1F)C(=O)O; Phe(3-Me) = Cc1cccc(C[C@H](N)C(=O)O)c1; γGlu = O=C(O)[C@H](CCC(=O)[*:2])N[*:1]; 2Nal = N[C@@H](Cc1ccc2ccccc2c1)C(=O)O; Tic = O=C(O)[C@@H]1Cc2ccccc2CN1; Cit = NC(=O)NCCC[C@H](N)C(=O)O; NMeL = CN[C@@H](CC(C)C)C(=O)O; Ahp(2) = CCCCC[C@H](N)C(=O)O; NMeNle = CCCC[C@H](NC)C(=O)O; Tle = CC(C)(C)[C@H](N)C(=O)O; NHexGly = CCCCCCNCC(=O)O; Nle = CCCC[C@H](N)C(=O)O; Orn = NCCC[C@H](N)C(=O)O; Aun = NCCCCCCCCCCC(=O)O; AEEA = NCCOCCOCC(=O)O; ξS = NC(CO)C(=O)O

Target: T1, mouse VISTA (mVISTA) (Mus musculus, UniProt Q9D659)
T1 construct: expressed in transfected cells; host or cells: Human embryonic kidney 293T cells
T1 sequence (Q9D659 33-308): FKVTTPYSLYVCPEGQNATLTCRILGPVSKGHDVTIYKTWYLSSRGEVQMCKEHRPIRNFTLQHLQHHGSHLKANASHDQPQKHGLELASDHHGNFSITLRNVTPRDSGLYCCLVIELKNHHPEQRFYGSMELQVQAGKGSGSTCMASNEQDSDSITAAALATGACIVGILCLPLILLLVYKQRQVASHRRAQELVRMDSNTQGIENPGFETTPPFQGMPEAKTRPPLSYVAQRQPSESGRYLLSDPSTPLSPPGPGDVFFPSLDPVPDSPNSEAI
Assay: Cell-Based Binding High-Content Assay For mVISTA (HC CBA mVISTA)
Summary of the method: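 This high-content binding assay uses HEK293T cells expressing murine VISTA, measuring displacement of 2 nM biotinylated peptide by fluorescent streptavidin imaging. IC50 values come from four-parameter logistic fitting.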

[1] = the 20th table, scaffold drawing 23, read-out: HC CBA mVISTA IC50
[2] = the 19th table, scaffold drawing 22, read-out: HC CBA mVISTA IC50

| SMILES | IC50 (read-out: HC CBA mVISTA IC50) [nM] | also measured |
| --- | --- | --- |
| CCCCCCN1CC(=O)N[C@@H](Cc2ccc(O)cc2)C(=O)N[C@@H](CCCC)C(=O)N[C@@H](CC(N)=O)C(=O)N[C@@H](CCCNC(N)=O)C(=O)N2Cc3ccccc3C[C@H]2C(=O)N[C@@H](CCCCC)C(=O)N2CCC[C@H]2C(=O)N[C@@H](C(C)C)C(=O)N[C@@H](CO)C(=O)N[C@H](C(=O)NCC(N)=O)CSCC(=O)N[C@@H](Cc2ccccc2)C(=O)N[C@@H](Cc2c[nH]c3ccccc23)C(=O)N[C@@H](CC(=O)O)C1=O [Example 1413] ({CH2CO}-FWD[NHexGly]Y[Nle]N[Cit][Tic][Ahp(2)]PVSCG-NH2; thioether N-14) | 18.9 |  |
| CCCCCCN1CC(=O)N[C@@H](Cc2ccc(O)cc2)C(=O)N[C@@H](CCCC)C(=O)N[C@@H](CC(N)=O)C(=O)N[C@@H](CCCNC(=N)N)C(=O)N[C@@H](CC(C)C)C(=O)N[C@@H](CCCCC)C(=O)N2CCC[C@H]2C(=O)N[C@@H](C(C)C)C(=O)N[C@@H](CC(=O)O)C(=O)N[C@H](C(=O)NCC(=O)O)CSCC(=O)N[C@@H](Cc2ccc(C(F)(F)F)cc2)C(=O)N[C@@H](Cc2ccc(O)cc2)C(=O)N[C@@H](CC(=O)O)C1=O [compound 1461] ({CH2CO}-[Phe(4-CF3)]YD[NHexGly]Y[Nle]NRL[Ahp(2)]PVDCG-OH; thioether N-14) |  | IC50 [1]: 5 nM |
| CCCCCCN1CC(=O)N[C@@H](Cc2ccc(O)cc2)C(=O)N[C@@H](CCCC)C(=O)N[C@@H](CC(N)=O)C(=O)N[C@@H](CCCNC(=N)N)C(=O)N[C@@H](CC(C)C)C(=O)N[C@@H](CCCCC)C(=O)N2CCC[C@H]2C(=O)N[C@@H](C(C)C)C(=O)N[C@@H](CC(=O)O)C(=O)N[C@H](C(=O)NCC(=O)O)CSCC(=O)N[C@@H](Cc2cc(F)c(F)c(F)c2)C(=O)N[C@@H](Cc2ccc(O)cc2)C(=O)N[C@@H](CC(=O)O)C1=O [compound 1457] ({CH2CO}-[Phe(3,4,5-F3)]YD[NHexGly]Y[Nle]NRL[Ahp(2)]PVDCG-OH; thioether N-14) |  | IC50 [1]: 11.6 nM |
| CCCCCCN1CC(=O)N[C@@H](Cc2ccc(O)cc2)C(=O)N[C@@H](CC(C)C)C(=O)N[C@@H](CC(N)=O)C(=O)N[C@@H](CCCNC(=N)N)C(=O)N[C@@H](CC(C)C)C(=O)N[C@@H](CCCCC)C(=O)N2CCC[C@H]2C(=O)N[C@@H](C(C)C)C(=O)N[C@@H](C(C)C)C(=O)N[C@H](C(=O)NCC(=O)O)CSCC(=O)N[C@@H](Cc2cccc(C)c2)C(=O)N[C@@H](Cc2ccc(O)cc2)C(=O)N[C@@H](CC(=O)O)C1=O [compound 1432] ({CH2CO}-[Phe(3-Me)]YD[NHexGly]YLNRL[Ahp(2)]PVVCG-OH; thioether N-14) |  | IC50 [2]: 3 nM |
| CCCCCCN1CC(=O)N[C@@H](Cc2ccc(O)cc2)C(=O)N[C@@H](CCCC)C(=O)N[C@@H](CC(=O)O)C(=O)N[C@@H](CCCN)C(=O)N(C)[C@@H](CCCC)C(=O)N[C@@H](CCCCC)C(=O)N2CCC[C@H]2C(=O)N[C@@H](C(C)C)C(=O)N[C@@H](CC(=O)O)C(=O)N[C@H](C(=O)N[C@@H](CO)C(N)=O)CSCC(=O)N[C@@H](Cc2ccc3ccccc3c2)C(=O)N[C@@H](Cc2c[nH]c3ccccc23)C(=O)N[C@@H](CC(=O)O)C1=O [compound 1256] ({CH2CO}-[2Nal]WD[NHexGly]Y[Nle]D[Orn][NMeNle][Ahp(2)]PVDCS-NH2; thioether N-14) |  | IC50 (cell-based binding high-content assay, mVISTA, the 15th table, read-out: HC CBA mVISTA IC50): 12.9 nM |
| CCCCCCN1CC(=O)N[C@@H](Cc2ccc(O)cc2)C(=O)N[C@@H](CC(C)C)C(=O)N[C@@H](CC(N)=O)C(=O)N[C@@H](CCCNC(=N)N)C(=O)N(C)[C@@H](CC(C)C)C(=O)N[C@@H](CCCCC)C(=O)N2CCC[C@H]2C(=O)N[C@@H](C(C)(C)C)C(=O)N[C@@H](CC(=O)O)C(=O)N[C@H](C(=O)NCCOCCOCC(=O)N[C@@H](CCC(=O)NCCOCCOCC(=O)NCCCCCCCCCCC(=O)O)C(=O)O)CSCC(=O)N[C@@H](Cc2ccccc2)C(=O)N[C@@H](Cc2ccc(O)cc2)C(=O)N[C@@H](CC(=O)O)C1=O [compound 2267] ({CH2CO}-FYD[NHexGly]YLNR[NMeL][Ahp(2)]P[Tle]DC[AEEA][γGlu][AEEA][Aun]-OH; thioether N-14) | 28.9 |  |
| CCCCCCN1CC(=O)N[C@@H](Cc2ccc(O)cc2)C(=O)N[C@@H](CCCC)C(=O)N[C@@H](CC(N)=O)C(=O)N[C@@H](CCCNC(=N)N)C(=O)N[C@@H](CC(C)C)C(=O)N[C@@H](CCCCC)C(=O)N2CCC[C@H]2C(=O)N[C@@H](C(C)(C)C)C(=O)N[C@@H](CO)C(=O)N[C@H](C(=O)NCC(N)=O)CSCC(=O)N[C@@H](Cc2ccccc2)C(=O)N[C@@H](Cc2c[nH]c3ccccc23)C(=O)N[C@@H](CC(=O)O)C1=O [Example 1364] ({CH2CO}-FWD[NHexGly]Y[Nle]NRL[Ahp(2)]P[Tle]SCG-NH2; thioether N-14) | 44 |  |
| CCCCCCN1CC(=O)N[C@@H](Cc2ccc(O)cc2)C(=O)N[C@@H](CC(C)C)C(=O)N[C@@H](CC(N)=O)C(=O)N[C@@H](CCCNC(=N)N)C(=O)N[C@@H](CC(C)C)C(=O)N[C@@H](CCCCC)C(=O)N2CCC[C@H]2C(=O)N[C@@H](C(C)(C)C)C(=O)N[C@@H](CO)C(=O)N[C@H](C(=O)NCCOCCOCC(=O)N[C@@H](CCC(=O)NCCOCCOCC(=O)NCCCCCCCCCCC(=O)O)C(=O)O)CSCC(=O)N[C@@H](Cc2ccccc2)C(=O)N[C@@H](Cc2ccc(O)cc2)C(=O)N[C@@H](CC(=O)O)C1=O [compound 2235] ({CH2CO}-FYD[NHexGly]YLNRL[Ahp(2)]P[Tle]SC[AEEA][γGlu][AEEA][Aun]-OH; thioether N-14) | 15.1 |  |
| CCCCCCN1CC(=O)N[C@@H](Cc2ccc(O)cc2)C(=O)N[C@@H](CC(C)C)C(=O)N[C@@H](CC(N)=O)C(=O)N[C@@H](CCCNC(=N)N)C(=O)N[C@@H](CC(C)C)C(=O)N[C@@H](CCCCC)C(=O)N2CCC[C@H]2C(=O)N[C@@H](C(C)C)C(=O)N[C@@H](CCCNC(=N)N)C(=O)N[C@H](C(=O)NCC(=O)O)CSCC(=O)N[C@@H](Cc2ccccc2)C(=O)N[C@@H](Cc2ccc(O)cc2)C(=O)N[C@@H](CC(=O)O)C1=O [Example 1030] ({CH2CO}-FYD[NHexGly]YLNRL[Ahp(2)]PVRCG-OH; thioether N-14) |  | IC50 (293T cells expressing mouse VISTA, competition with biotinylated peptide (2 nM), read-out: HC CBA mVISTA IC50): 34.5 nM |
| CCCCCCN1CC(=O)N[C@@H](Cc2ccc(O)cc2)C(=O)N[C@@H](CCCC)C(=O)N[C@@H](CC(=O)O)C(=O)N[C@@H](CCCN)C(=O)N[C@@H](CC(C)C)C(=O)N[C@@H](CCCCC)C(=O)N2CCC[C@H]2C(=O)N[C@@H](C(C)C)C(=O)N[C@@H](CC(=O)O)C(=O)N[C@H](C(=O)N[C@@H](CO)C(N)=O)CSCC(=O)N[C@@H](Cc2cccc(C)c2)C(=O)N[C@@H](Cc2c[nH]c3ccccc23)C(=O)N[C@@H](CC(=O)O)C1=O [compound 1427] ({CH2CO}-[Phe(3-Me)]WD[NHexGly]Y[Nle]D[Orn]L[Ahp(2)]PVDCS-NH2; thioether N-14) |  | IC50 [2]: 9.4 nM |
| CCCCCCN1CC(=O)N[C@@H](Cc2ccc(O)cc2)C(=O)N[C@@H](CCCCC)C(=O)N[C@@H](CC(N)=O)C(=O)N[C@@H](CCCNC(=N)N)C(=O)N(C)[C@@H](CCCC)C(=O)N[C@@H](CCCCC)C(=O)N2CCC[C@H]2C(=O)N[C@@H](C(C)C)C(=O)N[C@@H](C(C)C)C(=O)N[C@H](C(=O)NC(CO)C(=O)O)CSCC(=O)N[C@@H](Cc2ccc(F)cc2F)C(=O)N[C@@H](Cc2c[nH]c3ccccc23)C(=O)N[C@@H](CC(=O)O)C1=O (some centres unmarked) [compound 1221] ({CH2CO}-[Phe(2,4-F2)]WD[NHexGly]Y[Ahp(2)]NR[NMeNle][Ahp(2)]PVVC[ξS]-OH; thioether N-14) | 20.3 |  |
| CCCCCCN1CC(=O)N[C@@H](Cc2ccc(O)cc2)C(=O)N[C@@H](CCCC)C(=O)N[C@@H](CC(N)=O)C(=O)N[C@@H](CCCNC(=N)N)C(=O)N(C)[C@@H](CCCC)C(=O)N[C@@H](CCCCC)C(=O)N2CCC[C@H]2C(=O)N[C@@H](C(C)C)C(=O)N[C@@H](CC(=O)O)C(=O)N[C@H](C(=O)NCC(=O)O)CSCC(=O)N[C@@H](Cc2ccccc2)C(=O)N[C@@H](Cc2ccc(O)cc2)C(=O)N[C@@H](CC(=O)O)C1=O [Example 1083] ({CH2CO}-FYD[NHexGly]Y[Nle]NR[NMeNle][Ahp(2)]PVDCG-OH; thioether N-14) |  | IC50 (293T cells expressing mouse VISTA, competition with biotinylated peptide (2 nM), read-out: CBA mVISTA IC50): 39.1 nM |
| CCCCCCN1CC(=O)N[C@@H](Cc2ccc(O)cc2)C(=O)N[C@@H](CCCC)C(=O)N[C@@H](CC(N)=O)C(=O)N[C@@H](CCCNC(=N)N)C(=O)N[C@@H](CC(C)C)C(=O)N[C@@H](CCCCC)C(=O)N2CCC[C@H]2C(=O)N[C@@H](C(C)C)C(=O)N[C@@H](CCCNC(=N)N)C(=O)N[C@H](C(=O)NCC(=O)O)CSCC(=O)N[C@@H](Cc2ccccc2)C(=O)N[C@@H](Cc2c[nH]c3ccccc23)C(=O)N[C@@H](CC(=O)O)C1=O [Example 1360] ({CH2CO}-FWD[NHexGly]Y[Nle]NRL[Ahp(2)]PVRCG-OH; thioether N-14) | 28.4 |  |
| CCCCCCN1CC(=O)N[C@@H](Cc2ccc(O)cc2)C(=O)N[C@@H](CCCC)C(=O)N[C@@H](CC(N)=O)C(=O)N[C@@H](CCCNC(=N)N)C(=O)N(C)[C@@H](CCCC)C(=O)N[C@@H](CCCCC)C(=O)N2CCC[C@H]2C(=O)N[C@@H](C(C)C)C(=O)N[C@@H](CC(=O)O)C(=O)N[C@H](C(=O)NCC(=O)O)CSCC(=O)N[C@@H](Cc2ccccc2)C(=O)N[C@@H](Cc2cccc(C)c2)C(=O)N[C@@H](CC(=O)O)C1=O [compound 1345] ({CH2CO}-F[Phe(3-Me)]D[NHexGly]Y[Nle]NR[NMeNle][Ahp(2)]PVDCG-OH; thioether N-14) | 12.7 |  |
